Patent publication US20240122932A1, “Methods of Treating B-Cell Malignancy Using Bcl-2 Inhibitor” (BeiGene Switzerland GmbH, priority 2021, published 2024)

System: JeKo-1 human mantle cell lymphoma (MCL) subcutaneous xenograft
Experiment: JeKo-1 human MCL subcutaneous xenograft model, Bcl-2 inhibitor with BTK inhibitor
Type: in vivo, NCG mice
Settings: 20 mpk p.o. BID
Procedure: JeKo-1 cells were maintained as suspension cell cultures at 37° C. in a 5% CO2 atmosphere. Five to six-week-old female NCG mice were purchased from Gempharmatech of Information Technology Center. All animals were maintained under specific pathogen free (SPF) “full barrier” condition with free access to food and water. […] Mice were fed with complete granulated feed with Co60 radiosterilization (Beijing Ke Ao Xie Li Feed Co., Ltd.). All experiments were carried out in accordance with BeiGene's IACUC.
Re-suspended cells were placed on ice prior to inoculation. […] Each animal was injected subcutaneously with 1×10^7 cells in 200 μL of cell suspension in the right front flank via a 26-gauge needle. After implantation, primary tumor volume was measured in two dimensions using a caliper.
Transplanted animals were randomized into 8 groups with 10 mice per group on day 0 according to transplantation sequence and body weight. […] Treatments were administered by oral gavage (p.o.) in a volume of 10 mL/kg body weight. Body weight was assessed immediately before dosing and volume dosed was adjusted accordingly.
Individual body weight was recorded twice weekly, with mice being monitored daily for clinical signs of toxicity for the duration of the study. Mice were euthanized using carbon dioxide when their tumor volume reached 2,000 mm^3, the tumor was ulcerated, or body weight loss exceeded 20%.
Tumor volume (TV) was calculated using the formula: TV=0.5×(a×b^2) where a and b are the long and short diameters of the tumor, respectively. […] (treated t=treated tumor volume at time t, vehicle t=vehicle tumor volume at time t)

C=CC(=O)N1CCC([C@@H]2CCNc3c(C(N)=O)c(-c4ccc(Oc5ccccc5)cc4)nn32)CC1 [Compound B, (S)-7-(1-acryloylpiperidin-4-yl)-2-(4-phenoxyphenyl)-4,5,6,7-tetra-hydropyrazolo[1,5-a]pyrimidine-3-carboxamide, reference compound]
Mean TV (D 21) (mm^3 ± SEM): 799.8 ± 73.2 mm^3 | TGI (%) (day 21, 20 mg/kg): 56%
